Assay: Human HepG2 cell viability assay in 384 well format
Type: toxicity, cell-based
Set-up: dose 125 nL, time 70.5 hour; concentration not given beside the values
Details: HepG2 cells, read-out: Inhibition

| SMILES | cytotoxicity at 70.5 h [%] |
| --- | --- |
| Cc1c(C)n2c(SCC(=O)N3CCOCC3)nnc2[nH]c1=O | -3.31 |
| CCc1c(C)nc(SCc2ccccn2)[nH]c1=O | -5.97 |
| CCOC(=O)c1sc(NC(=O)C(C)C)c(C#N)c1C | -5.23 |
| Cc1c(C)n2c(SCC(=O)N3CCCCC3)nnc2[nH]c1=O | -8.89 |
| CCCc1cc(=O)[nH]c2nnc(SCC(C)=O)n12 | -6.78 |
| Cc1cccc(-n2ncc3c(=O)n(CCN4CCCCC4)cnc32)c1C | 28 |
| CCOC(=O)c1sc(NC(=O)CN2C(=O)CCC2=O)c(C#N)c1C | 31.1 |
| CCS(=O)(=O)c1cccc(C(=O)Nc2cccc3c2C(=O)N(C)C3=O)c1 | 31 |
| CCCc1cc(=O)n(CC(=O)NCCOC)c(-n2nc(C)cc2C)n1 | -0.382 |
| O=C(CSC1=NS(=O)(=O)c2cc(F)ccc2N1)Nc1ccc(Cl)cc1 | 22.3 |
| CCNC(=O)NCc1nn(CCN2CCCC2)c(=O)c2ccccc12 | -5.36 |
| CN(C)S(=O)(=O)NCc1nn(CCN2CCCC2)c(=O)c2ccccc12 | -12.7 |
| Cc1ccccc1CSc1nc(=O)n(CCO)c2c1CCC2 | -9.33 |
| CCCN1CCc2nc(SCc3ccccc3)[nH]c(=O)c2C1 | 8.44 |
| CCCN1CCc2nc(SCc3ccccc3F)[nH]c(=O)c2C1 | 6.37 |
| CCCS(=O)(=O)c1ccc(N2CCC(Cc3ccccc3)CC2)nn1 | -2.73 |
| CC(C)(C)OC(=O)Cn1cccc(S(=O)(=O)N2CCCC2)c1=O | -12.8 |
| O=c1c(S(=O)(=O)N2CCCC2)cccn1Cc1c(F)cccc1Cl | -6.76 |
| O=c1c(S(=O)(=O)N2CCCCC2)cccn1Cc1ccccc1Cl | -1.51 |
| CC1CCN(S(=O)(=O)c2cccn(CC(=O)NC(C)(C)C)c2=O)CC1 | -9.49 |
| Cc1ccc(-c2csc3c(=O)[nH]c(N4CCCC(C(N)=O)C4)nc23)cc1 (centres undefined) | 1.04 |
| O=C(O)C1CCCN(c2nc3c(-c4ccccc4)csc3c(=O)[nH]2)C1 (centres undefined) | 0.25 |

| SMILES | cytotoxicity at 70.5 h [%] |
| --- | --- |
| COCCCNC(=O)Cc1cc(-c2ccc(Cl)cc2)on1 | 3.59 |
| O=C(Cc1cc(-c2ccc3c(c2)OCCO3)on1)NCc1ccccn1 | -10.7 |
| O=C(c1cc(F)cc(F)c1)N1CCC2(CC1)CC2 | -9.31 |
| O=C(C1CCCC1)N1CCO[C@@H]2CNC[C@@H]21 | 12.2 |
| CN1C2(CCN(Cc3ccc(F)cc3)C2)c2ccccc2S1(=O)=O (centres undefined) | 13.5 |
| CCN1C(=O)CC(c2cnn(C)c2)C12CCN(C(=O)C1CC=CC1)CC2 (centres undefined) | 0.244 |
| c1ccc(NCc2cn3c(n2)CN(Cc2ccoc2)CC3)nc1 | -0.75 |
| CN1C(=O)CC(c2cnn(C)c2)C12CCN(C(=O)c1ccc[nH]1)CC2 (centres undefined) | -5.07 |
| O=c1cc(Cn2ccnc2)nc2n1CCCN(Cc1ccco1)C2 | -5.53 |
| O=c1cc(Cn2cncn2)nc2n1CCCN(Cc1ccco1)C2 | -3.55 |
| c1cnc(OCc2nnc3n2CCN(Cc2ccco2)C3)nc1 | -0.839 |
| CCOC(=O)C1CN(S(=O)(=O)CC)Cc2ncn(CC)c21 (centres undefined) | 0.473 |
| Cn1cc(C2CC(=O)NC23CCN(C(=O)c2ccc[nH]2)CC3)cn1 (centres undefined) | -1.53 |
| CC(=O)N1CCCc2sc(C(=O)Nc3ccc(C)nc3)nc21 | -1.24 |
| O=C(C1CCCCC1)N1CCO[C@@H]2CNC[C@@H]21 | -2.15 |
| Cc1noc([C@]23COC[C@H]2CN(S(=O)(=O)N(C)C)C3)n1 | -1.88 |
| Cc1noc([C@]23COC[C@H]2CN(S(=O)(=O)C2CC2)C3)n1 | -1.24 |
| COCC1c2c(cnn2C)CCN1C(=O)c1ccc2c(c1)OCO2 (centres undefined) | 1.82 |
| c1cncc(-c2ccc3c(c2)CCC32CCNCC2)c1 | 17.8 |
| CN(C)C(=O)N1CCC2(CC(=O)N(c3ccc4c(c3)OCO4)C2)C1 (centres undefined) | 1.41 |
| O=c1ccc2c(n1Cc1ccncc1)CCN(C1CCOC1)CC2 (centres undefined) | 0.608 |
| CC(C)NC(=O)N1CCC(c2nnc3ccc(C(=O)N(C)C)cn23)C1 (centres undefined) | -1.02 |

| SMILES | cytotoxicity at 70.5 h [%] |
| --- | --- |
| CN1CCCN(C(=O)c2nc3c(s2)CCCN3CC2CC2)CC1 | -1.89 |
| O=C(c1cc(-c2ccn(CC3CC3)n2)n2ccccc12)N1CCCO1 | -3.08 |
| O=C(NC1CCCC1)c1nc2c(o1)CN(C(=O)CO)C2 | -1.18 |
| c1cc(-c2nnn3c2COC(CNCC2CCOCC2)C3)ccn1 (centres undefined) | 32.3 |
| O=C(C1CN(CC2CC2)CC12CCOCC2)N1CCCC1 (centres undefined) | 16.3 |
| O=C(c1ccsc1)N1CCc2onc(CN3CCOCC3)c2C1 | -4.87 |
| O=C1[C@@H]2CCN(CC3CC3)C[C@@H]2OCCN1c1ccsc1 | -2.56 |
| COCCN1CCC2(CC1)CC(CC(N)=O)c1ccc(F)cc12 (centres undefined) | 1.63 |
| c1cc(CNCC2Cn3nncc3CO2)ccn1 (centres undefined) | -5.93 |
| CNC(=O)c1cnc2n1CCN(C(=O)Cc1ccccn1)C2 | -13.8 |
| CC(C)N1c2sc(-c3ccccc3)nc2CC1C(=O)NCCCO (centres undefined) | -5.59 |
| CCS(=O)(=O)N1CC[C@@H]2[C@H](COCC3CC3)CN(C)C(=O)[C@@H]2CC1 | -5.95 |
| c1cc(CNCC2Cn3nncc3CO2)cs1 (centres undefined) | -6.68 |
| CC(C)N1c2sc(-c3ccccc3)nc2CC1C(=O)NC1CCCC1 (centres undefined) | -6.93 |
| CC(C)N1c2sc(-c3ccsc3)nc2CC1C(=O)NC1CC1 (centres undefined) | -5.25 |
| COCc1nc2c(o1)CN(C(=O)NCc1ccccc1)C2 | -12.9 |
| CCOc1cc(=O)n2c(c1C(=O)OCc1ccc(OC)cc1)CCCC2 | -14.9 |
| Cc1noc(C2CCCCN2C(=O)NCc2ccco2)n1 (centres undefined) | -19.9 |
| CNC(=O)C1CCN(c2nc3nc[nH]c(=O)c3s2)CC1 | -16.7 |
| COc1cc(C(=O)NC(C)C)nc2c(C)cc(F)cc12 | 23.4 |
| COc1cc(C(=O)NCC2CC2)nc2c(C)cc(F)cc12 | -4.75 |
| COc1cc(C(=O)NCC2CCCO2)nc2c(C)cc(F)cc12 (centres undefined) | -25.4 |

| SMILES | cytotoxicity at 70.5 h [%] |
| --- | --- |
| CCc1c(C(=O)O)nnn1-c1cc(C)cc(C)c1 | -18.5 |
| CN(C)CCCNC(=O)c1cc(Cl)ccc1Cl | -14.5 |
| CN(C)CCCNC(=O)c1ccccc1NC(=O)c1ccccc1Cl | 22.1 |
| O=C(CCn1ccc2ccc(F)cc21)/N=c1\[nH]nc(C2CCCO2)s1 (centres undefined) | -20.2 |
| CC(CO)NC(=O)c1ccc2[nH]/c(=N\S(C)(=O)=O)sc2c1 (centres undefined) | -3.5 |
| CSCCC(CO)NC(=O)c1ccc2[nH]/c(=N\S(C)(=O)=O)sc2c1 (centres undefined) | -13.7 |
| Cc1ccccc1COCCOCn1c(C)cc(=O)[nH]c1=O | -4.1 |
| Cc1noc2nc3c(c(C(=O)/N=c4\[nH]nc(C(C)C)s4)c12)CCC3 | -12.5 |
| COc1ccc(NC(=O)CSc2ccc3nncn3n2)c(OC)c1 | -15.9 |
| Cc1nn(C)c2nc3c(c(C(=O)/N=c4\[nH]nc(C(C)C)s4)c12)CCC3 | -18.8 |
| COc1ccc(NC(=O)CCSc2ccc3nncn3n2)c(OC)c1 | -11.8 |
| CCCC(=O)N(CCCN1CCOCC1)c1nc2c(C)ccc(Cl)c2s1 | -3.12 |
| COc1ccc(CCC2CCCCN2)cc1 (centres undefined) | 24.2 |
| CSCC[C@H](N)c1nnc(SCc2cc(C)ccc2C)o1 | -5.14 |
| CCCN1CCC2(C1)c1ccccc1S(=O)(=O)N2Cc1ccccc1 (centres undefined) | 3.08 |
| CS(=O)(=O)NCc1cn2c(n1)CN(Cc1ccoc1)CC2 | 3.17 |
| Fc1cnc(N2CC3(CCN(CC4CC4)C3)C2)nc1 | -0.963 |
| O=C(Cc1ccsc1)N1C[C@@H]2OCCN(CC3CC3)[C@@H]2C1 | 1.39 |
| CN(C)C(=O)COCc1nnc2n1CCN(Cc1ccsc1)C2 | 0.94 |
| Cc1nc(-c2cc(C(=O)N3CCCN(C)CC3)c3ccccn23)cn1C | -2.18 |
| O=C(C1CN(CC2CCOCC2)CC12CCOCC2)N1CCOCC1 (centres undefined) | -2.61 |
| O=S(=O)(C1CC1)N1CCC2(CC1)CN(Cc1nccs1)CCO2 | -5.12 |

| SMILES | cytotoxicity at 70.5 h [%] |
| --- | --- |
| Fc1cnc(N2CCCC3(CN(Cc4ccccc4)CCO3)C2)nc1 (centres undefined) | -4.05 |
| Cc1cccc(CO[C@@H]2CO[C@@]3(CCN(S(=O)(=O)N(C)C)C3)C2)n1 | -4.3 |
| COCCN1CCO[C@@H]2CN(C(=O)Cc3cccc(F)c3)CC[C@@H]2C1 | -0.585 |
| Cc1cccc(COC2COC3(CCN(S(C)(=O)=O)CC3)C2)n1 (centres undefined) | -0.691 |
| CC1CCN(C(=O)[C@@H]2C[C@@H]3CCN(CC4CCOCC4)C[C@@H]3O2)CC1 | -7.26 |
| CC1CCN(C(=O)[C@H]2C[C@@H]3CCN(CC4CCOCC4)C[C@H]3O2)CC1 | -6.03 |
| CC(C)N(C)Cc1cnc2n1CCN(C(=O)Cc1cccs1)C2C (centres undefined) | -6.21 |
| CCOCc1cnc2n1CCN(C(=O)Cc1ccccn1)C2C (centres undefined) | -5.89 |
| Cc1ccc(CN2CC[C@H]3[C@H]2CCN3S(=O)(=O)C2CC2)s1 | -5.12 |
| Cc1ccc(CN2CC[C@H]3[C@H]2CCN3S(C)(=O)=O)s1 | -6.63 |
| C[C@@H]1CN(C(=O)C2CCOCC2)C[C@]12CCN(c1cccnc1)C2=O | -6.64 |
| CC(C)N1CCC2(CC1)CC(CC(N)=O)c1ccc(F)cc12 (centres undefined) | -5.38 |
| Cc1ccc(NCc2cn3c(n2)CN(Cc2ccoc2)CC3)nn1 | 12 |
| CC(C)N(C)C[C@H]1OC[C@@H]2CCN(Cc3cccc(C#N)c3)C[C@@H]21 | 14.2 |
| O=c1ccc2c(n1Cc1cccnc1)CCN(C1CCOC1)CC2 (centres undefined) | -2.89 |
| CC(C)Nc1ncnc2c1CCN(Cc1nccn1C)CC2 | 8.85 |
| COCCN1CCO[C@@H]2CN(C(=O)NCc3cccnc3)CC[C@@H]2C1 | 0.801 |
| CN(C)C[C@H]1OC[C@@H]2CN(C(=O)NCc3cccnc3)CC[C@@H]21 | 0.184 |
| CN1CCCN(C(=O)c2cc(-c3cc[nH]n3)n3ccccc23)CC1 | -1.54 |
| CN1CCN(C(=O)[C@@H]2CC[C@@H]3[C@@H](CCN3c3ncccn3)O2)CC1 | -7.39 |
| CC(C)N1[C@H](Cn2cccn2)C[C@@H]2CN(C3CCOCC3)CC[C@@H]21 | -1.14 |
